Results as given in patent US20210352895A1, “SYNERGISTIC PESTICIDAL COMPOSITIONS AND METHODS FOR DELIVERY OF ACTIVE INGREDIENTS” (0903608 B.C. Ltd., priority 2018, published 2021).
Like-named read-outs stand apart in the source and are kept apart here.

Legend:
Assay type in all cases: cell-based
Sclerotinia sclerotiorum = test: Synergistic Growth Inhibition Assay (MIC / FIC index, resazurin, 96-well) on Sclerotinia sclerotiorum; conditions: for MIC (A): Compound A alone
Procedure: (§1) In some embodiments, the synergistic action between the pesticidal active ingredient, and the at least one C4-C10 (or alternatively C11 or C12) saturated or unsaturated aliphatic acid components of the pesticidal compositions according to embodiments of the present disclosure was tested using a Synergistic Growth Inhibition Assay, which is derived from and related to a checkerboard assay as is known in the art for testing of combinations of antimicrobial agents. In the Synergistic Growth Inhibition Assay used in accordance with some embodiments of the present disclosure, multiple dilutions of combinations of pesticidal active ingredient and at least one C4-C10 saturated or unsaturated aliphatic acid agents are tested in individual cells for inhibitory activity against a target pest or pathogenic organism. In one such embodiment, the combinations of pesticidal active ingredient and C4-C10 (or alternatively C11 or C12) saturated or unsaturated aliphatic acid agents may preferably be tested in decreasing concentrations. In a further such embodiment, the combinations of pesticidal active ingredient and C4-C10 (or alternatively C11 or C12) saturated or unsaturated aliphatic acid agents may be tested in increasing concentrations. These multiple combinations of the pesticidal active ingredient and at least one C4-C10 (or alternatively C11 or C12) saturated or unsaturated aliphatic acid agents may be prepared in 96-well microtiter plates. In one such embodiment, the Synergistic Growth Inhibition Assay then comprises rows which each contain progressively decreasing concentrations of the pesticidal active ingredient and one or more C4-C10 (or alternatively C11 or C12) saturated or unsaturated aliphatic acid agents to test for the MIC of the agents in combination at which growth of the target pest or pathogen is inhibited. Thus, each well of the microtiter plate is a unique combination of the two agents, at which inhibitory efficacy of the combination against the target pest or pathogen can be determined.
(§2) In one embodiment according to the present disclosure, for each row of microtiter cells in the Synergistic Growth Inhibition Assay, the FIC index is calculated from the lowest concentration of the pesticidal active ingredient and one or more C4-C10 saturated or unsaturated aliphatic acid agents necessary to inhibit growth of a target pest or pathogen. The FIC of each component is derived by dividing the concentration of the agent present in that well of the microtiter plate by the minimal inhibitory concentration (MIC) needed of that agent alone to inhibit growth of the target pest or pathogen. The FIC index is then the sum of these values for both agents in that well of the microtiter plate. The FIC index is calculated for each row as follows:
(§3) FICindex=MICa/MICA+MICb/MICB
(§4) Fractional inhibitory concentration indices may then used as measure of synergy. […] When the FIC index is equal to 1, the combination is additive.
(§5) Then, serial dilutions of these initial compositions in successive wells in the row of the microtiter plate were used to assay the pesticidal composition under the same conditions to determine the concentration of the composition combining the two agents corresponding to the microtiter well in which growth inhibition of the target pest or organism ceases.
(§6) Similarly to as described above, Resazurin was used as an indicator of growth or inhibition of growth of Sclerotinia sclerotiorum in the exemplary Synergistic Growth Inhibition Assay. In addition to the color change of the resazurin, an optical or visual examination of the microtiter well may also be made to additionally determine the presence of growth or inhibition of growth of the Sclerotinia sclerotiorum.

Botrytis cinerea = test: Synergistic Growth Inhibition Assay (MIC / FIC index, resazurin, 96-well) on Botrytis cinerea; conditions: Botrytis cinerea, Botrytis cinerea; for MIC: 48 h
Procedure: as §1, §2, §3, §4, §5
as §6, with “Botrytis cinerea” for “Sclerotinia sclerotiorum”, “Botrytis cinerea.” for “Sclerotinia sclerotiorum.”

Fusarium oxysporum = test: Synergistic Growth Inhibition Assay (MIC / FIC index, resazurin, 96-well) on Fusarium oxysporum; conditions: for MIC: 48 h
Procedure: as §1, §2, §3, §4, §5
Resazurin dye (also known as Alamar blue dye) was used as an indicator to determine the presence of growth or inhibition of growth of Fusarium oxysporum in the wells of the 96 well microtiter plates used in the exemplary Synergistic Growth Inhibition Assay. In addition to the color change of the resazurin dye in the presence of growth of the Fusarium oxysporum, an optical or visual examination of the microtiter well may also be made to additionally determine the presence of growth or inhibition of growth of the Fusarium oxysporum.

[1] = Sclerotinia sclerotiorum, Compound B alone, Sclerotinia sclerotiorum, 7 days incubation, read-out: MIC (B)
[2] = Sclerotinia sclerotiorum, Compound B alone, Sclerotinia sclerotiorum, incubation period of 7 days, read-out: MIC (B)
[3] = Fusarium oxysporum, Compound B alone, Fusarium oxysporum, 48 hours incubation, read-out: MIC (B)
[4] = Fusarium oxysporum, Compound B alone, Fusarium oxysporum, incubation period of 48 hours, read-out: MIC (B)
[5] = Sclerotinia sclerotiorum, read-out: MIC (B), Compound B alone, Sclerotinia sclerotiorum, 7 days incubation
[6] = Compound A alone, incubation period of 48 hours
[7] = Compound A alone, incubation period of 2 days
[8] = Compound A alone, 48 hours incubation
[9] = Compound A alone, incubation period of 48 hours, read-out: MIC (A)
[10] = Compound B alone, 48 hours incubation

**Q.** `CCC(C)CCC(=O)O` (centres unmarked) [4-methylhexanoic acid] was tested. Which MIC (Sclerotinia sclerotiorum; [1]) did it give?
**A.** 78.1 µg/mL

**Q.** What about the MIC (Sclerotinia sclerotiorum; [2]) of the same compound?
**A.** 78.1 µg/mL

**Q.** What about the MIC (Botrytis cinerea; Compound B alone, incubation period of 48 hours, read-out: MIC (B)) of the same compound?
**A.** 156 µg/mL

**Q.** What about the MIC (Fusarium oxysporum; [3]) of the same compound?
**A.** 156 µg/mL

**Q.** Which MIC (Sclerotinia sclerotiorum; [1]) does the source give for `CCCCCC(O)CC(=O)O` (centres unmarked) [3-hydroxyoctanoic acid] here?
**A.** 625 µg/mL

**Q.** What about the MIC (Sclerotinia sclerotiorum; [2]) of the same compound?
**A.** 625 µg/mL

**Q.** And the MIC (Fusarium oxysporum; [4])?
**A.** 1250 µg/mL

**Q.** Which results are given for `O=C(O)CCCCCCCCCO` [10-hydroxydecanoic acid]?
**A.** MIC (Sclerotinia sclerotiorum; [5]): 1000 µg/mL; MIC (Botrytis cinerea; read-out: MIC (B), Compound B alone, 48 hours incubation): 500 µg/mL; MIC (Botrytis cinerea; read-out: MIC (B), Compound B alone, incubation period of 2 days): 500 µg/mL; MIC (Fusarium oxysporum; Fusarium oxysporum, read-out: MIC (B), Compound B alone, Fusarium oxysporum, 48 hours incubation): 1000 µg/mL

**Q.** For `N#Cc1c[nH]cc1-c1cccc2c1OC(F)(F)O2` [Fludioxonil, fludioxonil, reference compound], which MIC (Sclerotinia sclerotiorum; Sclerotinia sclerotiorum, read-out: MIC (A), Compound A alone, Sclerotinia sclerotiorum, incubation period of 7 days) is on record?
**A.** 0.328 µg/mL

**Q.** What about the MIC (Botrytis cinerea; read-out: MIC (A), Compound A alone, incubation period of 2 days) of the same compound?
**A.** 0.164 µg/mL

**Q.** Which MIC (Sclerotinia sclerotiorum; [1]) does the source give for `CC(C)CC(=O)O` [3-methylbutyric acid] here?
**A.** 312 µg/mL

**Q.** And the MIC (Fusarium oxysporum; [3])?
**A.** 625 µg/mL

**Q.** Which results are given for `O=C(O)CCCCCCCCCCCO` [12-hydroxydodecanoic acid]?
**A.** MIC (Sclerotinia sclerotiorum; [5]): 100 µg/mL; MIC (Sclerotinia sclerotiorum; Sclerotinia sclerotiorum, read-out: MIC (B), Compound B alone, Sclerotinia sclerotiorum, incubation period of 7 days): 100 µg/mL

**Q.** How did the “MIC (A)” value (Botrytis cinerea; [6]) turn out when `Cc1cc(C(F)(F)F)nn1CC(=O)N1CCC(c2nc(C3=NOC(c4c(F)cccc4F)C3)cs2)CC1` (centres unmarked) [Oxathiapiprolin, reference compound] was run?
**A.** 500 µg/mL

**Q.** Which “MIC (B)” value (Botrytis cinerea; Compound B alone, incubation period of 48 hours) does the source give for `CC=CC=CC(=O)O` [2,4-Dihexenoic acid] here?
**A.** 125 µg/mL

**Q.** With `C=C(C)[C@@H]1CCC2=CC(=O)C[C@@H](C)[C@]2(C)C1` [Nootkatone (+)] as the compound, how does the “MIC (A)” value (Botrytis cinerea; [6]) read?
**A.** 125 µg/mL

**Q.** And the “MIC (A)” value (Fusarium oxysporum; Compound A alone, Fusarium oxysporum, incubation period of 48 hours)?
**A.** 500 µg/mL

**Q.** And the “MIC (A)” value (Fusarium oxysporum; Table 60, Compound A = nootkatone(+), alone or in combination with Compound B, incubation period not stated in table (either 24 hours or 4 days))?
**A.** 500 µg/mL

**Q.** What does the source list for `CC(C)(C)C(O)(CCc1ccc(Cl)cc1)Cn1cncn1` (centres unmarked) [Tebuconazole, reference compound]?
**A.** MIC (A) (Sclerotinia sclerotiorum; Sclerotinia sclerotiorum, 2-fold dilutions, incubation period of 7 days): 112.5 µg/mL; MIC (A) (Botrytis cinerea; [7]): 112.5 µg/mL; MIC (A) (Botrytis cinerea; [6]): 112.5 µg/mL; MIC (A) (Fusarium oxysporum; [8]): 225 µg/mL; MIC (Fusarium oxysporum; Fusarium oxysporum, Compound A alone, Fusarium oxysporum, incubation period of 48 hours, read-out: MIC (A)): 112 µg/mL

**Q.** Which results are given for `CCCCC(O)C(=O)O` (centres unmarked) [2-hydroxyhexanoic acid]?
**A.** MIC (Sclerotinia sclerotiorum; [2]): 2500 µg/mL; MIC (Botrytis cinerea; Compound B alone, 48 hours incubation, read-out: MIC (B)): 2500 µg/mL; MIC (Botrytis cinerea; Compound B alone, incubation period of 2 days, read-out: MIC (B)): 2500 µg/mL; MIC (Fusarium oxysporum; [3]): 2500 µg/mL; MIC (Fusarium oxysporum; [4]): 2500 µg/mL

**Q.** Which “MIC (A)” value (Botrytis cinerea; [6]) does the source give for `CC(C)C1C2CCC1c1c(NC(=O)c3cn(C)nc3C(F)F)cccc12` (centres unmarked) [Isopyrazam, reference compound] here?
**A.** 31.25 µg/mL

**Q.** `CCCCCCC(O)C(=O)O` (centres unmarked) [2-hydroxyoctanoic acid] was tested. Which MIC (Sclerotinia sclerotiorum; [2]) did it give?
**A.** 312 µg/mL

**Q.** What about the MIC (Fusarium oxysporum; [3]) of the same compound?
**A.** 625 µg/mL

**Q.** And the MIC (Fusarium oxysporum; [4])?
**A.** 625 µg/mL

**Q.** For `Cc1cc(C2CC2)nc(Nc2ccccc2)n1` [Cyprodinil, reference compound], which MIC (Botrytis cinerea; [9]) is on record?
**A.** 9 µg/mL

**Q.** Which MIC (Sclerotinia sclerotiorum; [2]) does the source give for `CCC(CC)(CC)C(=O)O` [2,2-diethylbutyric acid] here?
**A.** 250 µg/mL

**Q.** And the MIC (Fusarium oxysporum; [3])?
**A.** 250 µg/mL

**Q.** For `CCCC(C)CC(=O)O` (centres unmarked) [3-methylhexanoic acid], which MIC (Sclerotinia sclerotiorum; [1]) is on record?
**A.** 125 µg/mL

**Q.** And the MIC (Sclerotinia sclerotiorum; [2])?
**A.** 125 µg/mL

**Q.** And the MIC (Fusarium oxysporum; [3])?
**A.** 125 µg/mL

**Q.** `CC1COC(Cn2cncn2)(c2ccc(Oc3ccc(Cl)cc3)cc2Cl)O1` (centres unmarked) [Difenoconazole, reference compound] was tested. Which MIC (Botrytis cinerea; [9]) did it give?
**A.** 25.5 µg/mL

**Q.** And the “MIC (A)” value (Botrytis cinerea; [7])?
**A.** 51 µg/mL

**Q.** And the “MIC (A)” value (Fusarium oxysporum; [8])?
**A.** 51 µg/mL

**Q.** For `COC(=O)N(OC)c1ccccc1COc1ccn(-c2ccc(Cl)cc2)n1` [Pyraclostrobin, pyraclostrobin, reference compound], which “MIC (A)” value (Sclerotinia sclerotiorum; 7 days incubation) is on record?
**A.** 3.75 µg/mL

**Q.** And the MIC (Botrytis cinerea; Compound A alone, incubation period of 2 days, read-out: MIC (A))?
**A.** 15 µg/mL

**Q.** Which results are given for `CCC(O)C(=O)O` (centres unmarked) [2-hydroxybutyric acid]?
**A.** MIC (Sclerotinia sclerotiorum; [1]): 2500 µg/mL; MIC (Sclerotinia sclerotiorum; [2]): 2500 µg/mL; MIC (Fusarium oxysporum; [3]): 5000 µg/mL; MIC (Fusarium oxysporum; [4]): 5000 µg/mL

**Q.** Which “MIC (B)” value (Botrytis cinerea; [10]) does the source give for `CCCC(O)CC(=O)O` (centres unmarked) [3-Hydroxyhexanoic acid, 3-hydroxyhexanoic acid] here?
**A.** 2500 µg/mL

**Q.** With `CC(O)CC(=O)O` (centres unmarked) [3-Hydroxybutyric acid, 3-hydroxybutyric acid] as the compound, how does the “MIC (B)” value (Botrytis cinerea; [10]) read?
**A.** 10000 µg/mL
